A word on the IC50: it is the midpoint of a concentration-inhibition curve. A high value points to lower potency.

The target of this experiment is T1, Interstitial collagenase (Homo sapiens, UniProt P03956).
T1 sequence (P03956 whole entry): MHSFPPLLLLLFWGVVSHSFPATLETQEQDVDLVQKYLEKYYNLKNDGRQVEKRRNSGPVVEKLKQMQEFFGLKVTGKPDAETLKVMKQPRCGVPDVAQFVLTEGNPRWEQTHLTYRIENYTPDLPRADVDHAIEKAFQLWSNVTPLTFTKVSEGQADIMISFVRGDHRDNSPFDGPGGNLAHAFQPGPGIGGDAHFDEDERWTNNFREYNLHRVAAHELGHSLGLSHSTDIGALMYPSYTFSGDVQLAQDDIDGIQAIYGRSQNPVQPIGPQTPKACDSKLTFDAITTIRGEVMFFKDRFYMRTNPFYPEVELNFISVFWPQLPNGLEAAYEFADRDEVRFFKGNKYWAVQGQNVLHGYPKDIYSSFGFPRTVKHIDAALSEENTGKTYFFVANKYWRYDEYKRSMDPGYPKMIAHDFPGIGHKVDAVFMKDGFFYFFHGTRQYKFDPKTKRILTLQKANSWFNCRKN

`COCCN(C1(C(=O)NO)CN(C(=O)C(C)C)C1)S(=O)(=O)c1ccc(OCc2cc(C)nc3ccccc23)cc1` registered an IC50 of more than 10 µM.
